# Measurements from US10688116B2, “Treatment of metabolic disorders in equine animals” (Boehringer Ingelheim Vetmedica GmbH, priority 2014, dated 2020).
# Assay: Physicochemical properties of the crystalline complex
smiles,measurement,setting,value
N#Cc1ccc([C@@H]2O[C@H](CO)[C@@H](O)[C@H](O)[C@H]2O)cc1Cc1ccc(C2CC2)cc1.O=C(O)[C@@H]1CCCN1 [crystalline complex],tendency to absorb moisture,,does not show a high tendency to absorb moisture
same,physical and chemical stability,various environmental conditions and during production of a medicament,high physical and chemical stability
